Values of other authors in patent publication US20040047946A1, “Methods and formulations useful for lowering the cholesterol content of egg yolk” (Kapac, LLC, priority 2002, published 2004).

How the values were obtained:
hens = hens fed 0.0265% lovastatin for 35 days
chickens = chickens fed 2% and 4% sitosterol emulsified with carboxymethyl cellulose

CC[C@H](C)C(=O)O[C@H]1C[C@@H](C)C=C2C=C[C@H](C)[C@H](CC[C@@H]3C[C@@H](O)CC(=O)O3)[C@H]21 [lovastatin]
less cholesterol in eggs than those from hens that received only a corn-soybean diet (hens): 15%

CC[C@H](CC[C@@H](C)[C@H]1CC[C@H]2[C@@H]3CC=C4C[C@@H](O)CC[C@]4(C)[C@H]3CC[C@]12C)C(C)C [sitosterol]
cholesterol and total sterol content of the egg (chickens): significant reduction
level of egg yolk sitosterol (chickens): increased
